For one test, the target named is EGFR (Homo sapiens, UniProt P00533). The conditions noted are these: 10 μM.
Test [1] concerns the target T1, EGFR(L861Q) (Homo sapiens, UniProt P00533, L861Q). The conditions noted are these: 10 μM.
The target of test [2] is ABL1(F317I)-phosphorylated (Homo sapiens, UniProt P00519, F317I). The conditions noted are these: 10 μM.
The target in test [3] is ABL1(H396P)-nonphosphorylated (Homo sapiens, UniProt P00519, H396P). The conditions noted are these: 10 μM.
The target in another test is CSF1R (Homo sapiens, UniProt P07333). As to conditions: 10 μM.
Test [4] has as its target ABL1(Y253F)-phosphorylated (Homo sapiens, UniProt P00519, Y253F). The conditions noted are these: 10 μM.
Test [5] addresses ABL1(H396P)-phosphorylated (Homo sapiens, UniProt P00519, H396P). The conditions noted are these: 10 μM.
The target in another test is RET(M918T) (Homo sapiens, UniProt P07949, M918T). Description: biochemical. As to conditions: read-out: Percent control.
Sequence of RET(M918T) (P07949 29-1114 M918T): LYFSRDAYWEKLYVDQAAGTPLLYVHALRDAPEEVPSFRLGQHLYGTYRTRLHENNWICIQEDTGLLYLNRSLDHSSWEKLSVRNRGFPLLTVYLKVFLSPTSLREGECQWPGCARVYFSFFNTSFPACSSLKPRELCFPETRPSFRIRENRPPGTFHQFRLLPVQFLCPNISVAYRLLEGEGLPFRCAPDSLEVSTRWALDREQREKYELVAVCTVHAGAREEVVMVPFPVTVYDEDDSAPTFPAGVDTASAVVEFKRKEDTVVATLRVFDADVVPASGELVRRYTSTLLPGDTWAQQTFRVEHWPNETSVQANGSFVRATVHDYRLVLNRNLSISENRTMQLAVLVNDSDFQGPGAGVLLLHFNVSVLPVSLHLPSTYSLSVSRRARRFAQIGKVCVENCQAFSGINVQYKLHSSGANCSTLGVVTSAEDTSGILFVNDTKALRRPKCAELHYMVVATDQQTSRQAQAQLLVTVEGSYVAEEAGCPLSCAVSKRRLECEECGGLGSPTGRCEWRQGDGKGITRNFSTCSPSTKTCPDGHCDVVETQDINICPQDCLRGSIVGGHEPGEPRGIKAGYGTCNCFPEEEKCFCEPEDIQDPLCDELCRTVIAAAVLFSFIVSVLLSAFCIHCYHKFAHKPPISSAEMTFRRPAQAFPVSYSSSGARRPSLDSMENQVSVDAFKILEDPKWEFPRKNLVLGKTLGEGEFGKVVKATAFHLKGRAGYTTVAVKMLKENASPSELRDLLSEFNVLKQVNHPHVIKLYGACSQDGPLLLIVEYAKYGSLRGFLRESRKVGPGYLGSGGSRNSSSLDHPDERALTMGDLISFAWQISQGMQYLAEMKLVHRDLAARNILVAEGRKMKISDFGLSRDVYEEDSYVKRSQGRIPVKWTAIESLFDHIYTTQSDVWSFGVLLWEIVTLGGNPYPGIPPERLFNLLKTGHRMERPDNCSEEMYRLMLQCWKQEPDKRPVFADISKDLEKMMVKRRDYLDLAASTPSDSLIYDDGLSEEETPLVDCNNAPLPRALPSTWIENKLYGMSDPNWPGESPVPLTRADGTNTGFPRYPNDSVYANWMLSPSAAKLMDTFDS
Test [6] deals with ABL1(E317I)-nonphosphorylated (Homo sapiens, UniProt P00519, F317I). Description: biochemical. The conditions noted are these: read-out: Percent control.
Another test concerns the target RET (Homo sapiens, UniProt P07949). Description: biochemical. As to conditions: read-out: Percent control.
The target in a further test is ABL1-nonphosphorylated (Homo sapiens, UniProt P00519). Description: biochemical. The conditions noted are these: read-out: Percent control.
The target in a further test is ALK (Homo sapiens, UniProt Q9UM73). Description: biochemical. As to conditions: read-out: Percent control.
The target in test [7] is ABL1(F317L)-nonphosphorylated (Homo sapiens, UniProt P00519, F317L). In words: biochemical. The conditions noted are these: read-out: Percent control.
In a further test the target is EGFR(T790M) (Homo sapiens, UniProt P00533, T790M). In words: biochemical. The conditions noted are these: read-out: Percent control.
Sequence of EGFR(T790M) (P00533 25-1210 T790M): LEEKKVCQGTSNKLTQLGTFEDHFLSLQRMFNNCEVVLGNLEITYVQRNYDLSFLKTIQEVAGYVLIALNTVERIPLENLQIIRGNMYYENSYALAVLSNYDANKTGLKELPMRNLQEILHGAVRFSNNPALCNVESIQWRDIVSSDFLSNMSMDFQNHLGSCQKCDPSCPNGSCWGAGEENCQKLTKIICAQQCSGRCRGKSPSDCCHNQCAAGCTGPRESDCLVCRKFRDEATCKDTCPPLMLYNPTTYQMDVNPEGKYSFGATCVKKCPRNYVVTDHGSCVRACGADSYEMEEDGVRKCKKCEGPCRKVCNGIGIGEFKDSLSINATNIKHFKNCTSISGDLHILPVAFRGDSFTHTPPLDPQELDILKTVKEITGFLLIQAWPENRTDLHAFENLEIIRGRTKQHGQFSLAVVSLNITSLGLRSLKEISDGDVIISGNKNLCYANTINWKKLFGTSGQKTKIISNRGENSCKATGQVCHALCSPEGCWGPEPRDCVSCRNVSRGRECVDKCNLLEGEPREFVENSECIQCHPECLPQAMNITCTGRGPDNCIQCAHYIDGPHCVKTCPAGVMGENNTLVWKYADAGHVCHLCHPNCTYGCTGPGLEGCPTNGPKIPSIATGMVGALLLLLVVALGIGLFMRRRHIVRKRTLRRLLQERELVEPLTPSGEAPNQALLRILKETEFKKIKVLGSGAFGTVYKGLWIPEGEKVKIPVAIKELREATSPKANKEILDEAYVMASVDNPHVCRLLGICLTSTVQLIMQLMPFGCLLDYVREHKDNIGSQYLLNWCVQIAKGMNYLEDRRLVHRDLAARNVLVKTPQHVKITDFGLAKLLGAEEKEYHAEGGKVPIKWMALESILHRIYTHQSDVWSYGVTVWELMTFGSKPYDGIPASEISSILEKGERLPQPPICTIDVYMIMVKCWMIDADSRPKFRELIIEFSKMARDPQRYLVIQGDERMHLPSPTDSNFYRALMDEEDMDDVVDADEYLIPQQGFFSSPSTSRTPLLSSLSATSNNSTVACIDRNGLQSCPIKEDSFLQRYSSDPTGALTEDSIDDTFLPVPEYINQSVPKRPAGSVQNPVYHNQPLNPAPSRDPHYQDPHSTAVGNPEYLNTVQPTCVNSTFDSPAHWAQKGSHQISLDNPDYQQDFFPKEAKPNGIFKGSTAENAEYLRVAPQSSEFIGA
For test [8], the target named is T1, EGFR(L861Q). Description: biochemical. As to conditions: read-out: Percent control.
A further test addresses T2, EPHA1 (Homo sapiens, UniProt P21709).
T2 sequence (P21709 26-976): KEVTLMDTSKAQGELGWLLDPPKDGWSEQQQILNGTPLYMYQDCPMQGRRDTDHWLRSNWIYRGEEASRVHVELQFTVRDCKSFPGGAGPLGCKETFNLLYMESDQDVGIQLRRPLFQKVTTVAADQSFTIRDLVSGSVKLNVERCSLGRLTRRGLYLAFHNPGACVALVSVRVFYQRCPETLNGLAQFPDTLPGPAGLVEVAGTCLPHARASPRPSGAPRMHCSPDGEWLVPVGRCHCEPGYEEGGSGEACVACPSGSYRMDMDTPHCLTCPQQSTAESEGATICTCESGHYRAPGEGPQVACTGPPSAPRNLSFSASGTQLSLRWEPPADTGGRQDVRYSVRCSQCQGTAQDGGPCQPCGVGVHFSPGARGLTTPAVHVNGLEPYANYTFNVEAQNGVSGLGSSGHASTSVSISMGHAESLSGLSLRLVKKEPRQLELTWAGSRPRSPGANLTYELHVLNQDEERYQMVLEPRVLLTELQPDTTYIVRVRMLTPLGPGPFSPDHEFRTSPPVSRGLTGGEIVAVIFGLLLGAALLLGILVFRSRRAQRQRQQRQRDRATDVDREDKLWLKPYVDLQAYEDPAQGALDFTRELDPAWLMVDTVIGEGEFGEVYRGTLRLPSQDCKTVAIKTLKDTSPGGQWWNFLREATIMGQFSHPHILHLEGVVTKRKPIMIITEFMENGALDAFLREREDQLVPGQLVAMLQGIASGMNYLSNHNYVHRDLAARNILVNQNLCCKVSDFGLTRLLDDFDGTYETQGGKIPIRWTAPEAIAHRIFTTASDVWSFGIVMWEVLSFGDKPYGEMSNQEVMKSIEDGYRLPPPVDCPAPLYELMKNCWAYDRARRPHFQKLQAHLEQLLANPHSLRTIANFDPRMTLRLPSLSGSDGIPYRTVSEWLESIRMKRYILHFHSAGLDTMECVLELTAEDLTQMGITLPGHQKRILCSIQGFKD
Description: biochemical. As to conditions: read-out: Percent control.

The target in another test is T3, AXL (Homo sapiens, UniProt P30530).
T3 sequence (P30530 26-894): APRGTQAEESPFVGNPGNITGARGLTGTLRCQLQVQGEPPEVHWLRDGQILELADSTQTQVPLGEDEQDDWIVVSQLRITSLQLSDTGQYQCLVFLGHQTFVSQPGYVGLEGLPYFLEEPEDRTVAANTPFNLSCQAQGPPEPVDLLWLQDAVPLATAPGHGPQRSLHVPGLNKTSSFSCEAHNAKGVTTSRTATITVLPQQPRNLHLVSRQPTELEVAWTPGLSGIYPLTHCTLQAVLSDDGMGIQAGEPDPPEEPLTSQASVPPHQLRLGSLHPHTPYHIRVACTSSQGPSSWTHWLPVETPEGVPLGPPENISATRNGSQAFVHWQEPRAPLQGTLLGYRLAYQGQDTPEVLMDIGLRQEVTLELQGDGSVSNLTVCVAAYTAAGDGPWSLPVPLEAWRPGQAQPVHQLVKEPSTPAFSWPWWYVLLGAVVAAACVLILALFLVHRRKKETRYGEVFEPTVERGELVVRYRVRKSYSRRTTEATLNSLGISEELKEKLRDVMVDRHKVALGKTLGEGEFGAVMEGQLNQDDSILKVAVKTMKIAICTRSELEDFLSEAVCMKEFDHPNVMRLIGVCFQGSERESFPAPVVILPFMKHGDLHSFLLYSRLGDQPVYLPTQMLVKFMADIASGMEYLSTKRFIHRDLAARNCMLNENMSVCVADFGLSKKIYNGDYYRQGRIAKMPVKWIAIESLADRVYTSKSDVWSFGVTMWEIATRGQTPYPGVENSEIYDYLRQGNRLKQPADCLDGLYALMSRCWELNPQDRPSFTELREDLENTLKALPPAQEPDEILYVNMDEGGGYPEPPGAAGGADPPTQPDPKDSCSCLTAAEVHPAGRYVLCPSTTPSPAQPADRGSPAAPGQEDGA
Description: biochemical. As to conditions: read-out: Percent control.

The next test has as its target ABL2 (Homo sapiens, UniProt P42684). In words: biochemical. The conditions noted are these: read-out: Percent control.

T1 sequence (P00533 25-1210 L861Q): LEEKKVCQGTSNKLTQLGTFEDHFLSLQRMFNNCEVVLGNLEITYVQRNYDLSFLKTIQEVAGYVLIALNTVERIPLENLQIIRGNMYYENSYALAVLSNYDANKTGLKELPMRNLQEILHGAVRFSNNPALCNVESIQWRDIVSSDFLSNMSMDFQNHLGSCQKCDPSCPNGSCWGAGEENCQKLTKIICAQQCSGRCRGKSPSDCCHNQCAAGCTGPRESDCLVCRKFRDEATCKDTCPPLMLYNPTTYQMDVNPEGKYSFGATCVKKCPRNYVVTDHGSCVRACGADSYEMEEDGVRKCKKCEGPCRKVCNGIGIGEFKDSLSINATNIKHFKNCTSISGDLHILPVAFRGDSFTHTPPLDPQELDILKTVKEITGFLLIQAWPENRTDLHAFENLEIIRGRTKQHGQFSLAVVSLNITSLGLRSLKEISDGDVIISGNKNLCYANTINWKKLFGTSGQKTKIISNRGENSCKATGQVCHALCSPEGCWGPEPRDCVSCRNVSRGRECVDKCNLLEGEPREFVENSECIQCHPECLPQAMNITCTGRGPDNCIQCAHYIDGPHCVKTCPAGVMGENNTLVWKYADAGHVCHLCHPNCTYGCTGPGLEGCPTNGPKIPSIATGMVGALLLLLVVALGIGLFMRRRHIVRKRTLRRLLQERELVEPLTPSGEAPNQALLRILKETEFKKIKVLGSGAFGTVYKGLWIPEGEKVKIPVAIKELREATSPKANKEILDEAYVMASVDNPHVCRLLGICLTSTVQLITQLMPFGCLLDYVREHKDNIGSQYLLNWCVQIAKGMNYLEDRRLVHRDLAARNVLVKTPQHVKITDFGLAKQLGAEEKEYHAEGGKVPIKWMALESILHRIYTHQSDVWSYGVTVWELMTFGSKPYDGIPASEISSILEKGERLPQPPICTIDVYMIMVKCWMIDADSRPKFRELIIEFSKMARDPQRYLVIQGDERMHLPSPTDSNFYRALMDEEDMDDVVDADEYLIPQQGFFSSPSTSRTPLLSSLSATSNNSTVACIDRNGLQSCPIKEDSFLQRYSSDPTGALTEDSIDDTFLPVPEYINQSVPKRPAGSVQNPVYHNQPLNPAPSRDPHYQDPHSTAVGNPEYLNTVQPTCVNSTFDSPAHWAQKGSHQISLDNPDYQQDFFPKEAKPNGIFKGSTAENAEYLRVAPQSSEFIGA
Sequence of ABL2 (P42684 whole entry): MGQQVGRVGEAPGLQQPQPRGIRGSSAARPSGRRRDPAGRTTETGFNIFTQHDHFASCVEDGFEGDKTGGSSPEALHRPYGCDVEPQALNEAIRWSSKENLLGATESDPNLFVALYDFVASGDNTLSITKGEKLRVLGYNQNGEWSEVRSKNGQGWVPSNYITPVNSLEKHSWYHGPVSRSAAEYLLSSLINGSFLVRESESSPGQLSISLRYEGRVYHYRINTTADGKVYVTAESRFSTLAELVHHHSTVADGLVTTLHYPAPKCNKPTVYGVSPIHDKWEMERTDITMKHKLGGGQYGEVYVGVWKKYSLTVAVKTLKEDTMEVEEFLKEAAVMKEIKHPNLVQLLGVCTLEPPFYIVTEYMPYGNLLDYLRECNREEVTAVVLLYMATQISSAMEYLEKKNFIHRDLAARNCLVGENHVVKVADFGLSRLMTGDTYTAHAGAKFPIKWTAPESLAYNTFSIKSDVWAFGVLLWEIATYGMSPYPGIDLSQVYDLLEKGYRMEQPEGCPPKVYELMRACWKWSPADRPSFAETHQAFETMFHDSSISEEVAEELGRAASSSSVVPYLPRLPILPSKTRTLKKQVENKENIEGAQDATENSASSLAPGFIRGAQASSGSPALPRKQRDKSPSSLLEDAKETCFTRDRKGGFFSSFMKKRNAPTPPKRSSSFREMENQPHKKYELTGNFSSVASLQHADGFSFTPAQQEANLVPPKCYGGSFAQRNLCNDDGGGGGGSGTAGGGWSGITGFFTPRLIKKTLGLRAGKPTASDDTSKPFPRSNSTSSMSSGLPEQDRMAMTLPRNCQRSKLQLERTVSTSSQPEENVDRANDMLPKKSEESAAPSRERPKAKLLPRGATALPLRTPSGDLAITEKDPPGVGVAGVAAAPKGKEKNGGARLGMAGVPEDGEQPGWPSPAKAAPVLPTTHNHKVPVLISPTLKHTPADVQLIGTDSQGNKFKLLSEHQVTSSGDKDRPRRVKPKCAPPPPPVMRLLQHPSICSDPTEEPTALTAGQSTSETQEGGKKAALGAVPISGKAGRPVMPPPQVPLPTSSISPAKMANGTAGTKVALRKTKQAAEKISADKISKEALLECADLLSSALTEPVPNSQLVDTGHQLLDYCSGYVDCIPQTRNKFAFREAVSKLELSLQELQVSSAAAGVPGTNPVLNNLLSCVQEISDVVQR
Sequence of RET (P07949 29-1114): as the sequence (P07949 29-1114 M918T) above, with T890M counted along it

For the compound `Cc1ccc(NC(=O)c2ccc(CN3CCN(C)CC3)cc2)cc1Nc1nccc(-c2cccnc2)[n+]1[Pt-2]1([Cl])[NH2+]C2CCCCC2[NH2+]1` (stereo not drawn) [1b, oxaliplatin-imatinib], the Percent control at EGFR was 89%; on EGFR(L861Q) [1], 42%.
As to `C#Cc1cccc(Nc2c3cc(OCCOC)c(OCCOC)cc3nc[n+]2[Pt@SP2-2]([NH3+])([NH3+])[Cl])c1` [2a, cisplatin-erlotinib], the Percent control in test [2] turned out to be 49%; in test [3], 0.9%; at CSF1R, 91%; in test [4], 16%; in test [5], 13%.
`C#Cc1cccc(Nc2ncnc3cc(OCCOC)c(OCCOC)cc23)c1` [Erlotinib]: the remaining activity at 10 µM on RET(M918T) was determined as 3.2%; in test [6], 45.1%; at RET, 11.5%; at ABL1-nonphosphorylated it was 3.2%; on ALK it was 10.7%; in test [7] it was 6%.
`Cc1ccc(NC(=O)c2ccc(CN3CCN(C)CC3)cc2)cc1Nc1nccc(-c2cccnc2)n1` [Imatinib, reference compound]: the remaining activity at 10 µM on EGFR(T790M) and on EGFR(L861Q) [8] was 100% each time.
With `COc1cc2c(Nc3ccc(Br)cc3F)ncnc2cc1OCC1CCN(C)CC1` [Vandetanib, reference compound], the remaining activity at 10 µM on EPHA1 was determined as 2.2%; on AXL, 2.4%; at ABL2, 0.7%.
